Assay results from paper PMC5784979, “Direct comparison of the four aldehyde oxidase enzymes present in mouse gives insight into their substrate specificities” (PLoS ONE, 2018).

Assays:
mAOX3 = biological target: T1, mAOX3 (Mus musculus, UniProt G3X982); assay: DCPIP reduction at […] nm, steady-state kinetics; format: biochemical; details: 100 μM DCPIP as electron acceptor, 50 mM Tris-HCl, 1 mM EDTA, pH 8.0, 37°C, corrected to 100% Mo saturation
T1 construct: gene Aox3; recombinant from E. coli TP1000 (plasmid pMMA1), Ni-NTA and Superdex 200 purified, chemically sulfurated, dimer (300 kDa)
T1 sequence (G3X982 1-1335): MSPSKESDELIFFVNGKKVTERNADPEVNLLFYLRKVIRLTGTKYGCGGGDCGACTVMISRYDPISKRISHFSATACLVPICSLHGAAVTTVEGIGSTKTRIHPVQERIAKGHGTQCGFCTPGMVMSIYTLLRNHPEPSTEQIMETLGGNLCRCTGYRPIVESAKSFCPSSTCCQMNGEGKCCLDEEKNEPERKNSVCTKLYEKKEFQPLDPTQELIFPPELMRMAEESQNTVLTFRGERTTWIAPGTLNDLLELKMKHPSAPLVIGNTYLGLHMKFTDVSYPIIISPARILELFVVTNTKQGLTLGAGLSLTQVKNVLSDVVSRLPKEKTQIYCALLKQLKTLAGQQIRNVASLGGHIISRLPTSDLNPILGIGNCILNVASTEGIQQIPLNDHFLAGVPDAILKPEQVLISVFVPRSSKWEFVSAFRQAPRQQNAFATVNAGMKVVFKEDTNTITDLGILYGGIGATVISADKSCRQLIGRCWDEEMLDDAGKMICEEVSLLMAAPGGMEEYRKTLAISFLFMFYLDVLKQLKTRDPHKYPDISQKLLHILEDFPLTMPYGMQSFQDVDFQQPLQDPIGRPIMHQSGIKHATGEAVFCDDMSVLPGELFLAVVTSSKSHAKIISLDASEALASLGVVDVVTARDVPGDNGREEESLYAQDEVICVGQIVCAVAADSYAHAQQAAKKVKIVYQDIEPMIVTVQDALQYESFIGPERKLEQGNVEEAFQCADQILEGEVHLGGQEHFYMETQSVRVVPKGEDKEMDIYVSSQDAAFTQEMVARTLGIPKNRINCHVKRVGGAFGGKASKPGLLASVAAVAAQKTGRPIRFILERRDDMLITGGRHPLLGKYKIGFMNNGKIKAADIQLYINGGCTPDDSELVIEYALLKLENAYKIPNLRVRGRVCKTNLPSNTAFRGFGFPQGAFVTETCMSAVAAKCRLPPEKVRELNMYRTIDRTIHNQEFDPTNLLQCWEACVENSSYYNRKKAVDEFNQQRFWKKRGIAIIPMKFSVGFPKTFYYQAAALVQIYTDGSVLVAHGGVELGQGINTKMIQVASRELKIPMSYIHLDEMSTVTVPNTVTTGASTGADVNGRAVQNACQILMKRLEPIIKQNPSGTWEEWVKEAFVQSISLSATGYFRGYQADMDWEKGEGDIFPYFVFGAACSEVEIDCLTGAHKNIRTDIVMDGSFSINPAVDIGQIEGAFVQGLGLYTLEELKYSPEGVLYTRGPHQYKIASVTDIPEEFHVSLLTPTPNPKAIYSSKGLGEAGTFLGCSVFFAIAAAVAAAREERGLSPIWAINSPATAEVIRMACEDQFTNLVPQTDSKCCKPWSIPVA

mAOX4 = biological target: T2, mAOX4 (Mus musculus, UniProt Q3TYQ9); assay: DCPIP reduction at […] nm, steady-state kinetics; format: biochemical; details: 100 μM DCPIP as electron acceptor, 50 mM Tris-HCl, 1 mM EDTA, pH 8.0, 37°C, corrected to 100% Mo saturation
T2 construct: gene Aox4; recombinant from E. coli TP1000 (plasmid pMAOX4), Ni-NTA and Superdex 200 purified, chemically sulfurated, dimer (300 kDa)
T2 sequence (Q3TYQ9 1-1336): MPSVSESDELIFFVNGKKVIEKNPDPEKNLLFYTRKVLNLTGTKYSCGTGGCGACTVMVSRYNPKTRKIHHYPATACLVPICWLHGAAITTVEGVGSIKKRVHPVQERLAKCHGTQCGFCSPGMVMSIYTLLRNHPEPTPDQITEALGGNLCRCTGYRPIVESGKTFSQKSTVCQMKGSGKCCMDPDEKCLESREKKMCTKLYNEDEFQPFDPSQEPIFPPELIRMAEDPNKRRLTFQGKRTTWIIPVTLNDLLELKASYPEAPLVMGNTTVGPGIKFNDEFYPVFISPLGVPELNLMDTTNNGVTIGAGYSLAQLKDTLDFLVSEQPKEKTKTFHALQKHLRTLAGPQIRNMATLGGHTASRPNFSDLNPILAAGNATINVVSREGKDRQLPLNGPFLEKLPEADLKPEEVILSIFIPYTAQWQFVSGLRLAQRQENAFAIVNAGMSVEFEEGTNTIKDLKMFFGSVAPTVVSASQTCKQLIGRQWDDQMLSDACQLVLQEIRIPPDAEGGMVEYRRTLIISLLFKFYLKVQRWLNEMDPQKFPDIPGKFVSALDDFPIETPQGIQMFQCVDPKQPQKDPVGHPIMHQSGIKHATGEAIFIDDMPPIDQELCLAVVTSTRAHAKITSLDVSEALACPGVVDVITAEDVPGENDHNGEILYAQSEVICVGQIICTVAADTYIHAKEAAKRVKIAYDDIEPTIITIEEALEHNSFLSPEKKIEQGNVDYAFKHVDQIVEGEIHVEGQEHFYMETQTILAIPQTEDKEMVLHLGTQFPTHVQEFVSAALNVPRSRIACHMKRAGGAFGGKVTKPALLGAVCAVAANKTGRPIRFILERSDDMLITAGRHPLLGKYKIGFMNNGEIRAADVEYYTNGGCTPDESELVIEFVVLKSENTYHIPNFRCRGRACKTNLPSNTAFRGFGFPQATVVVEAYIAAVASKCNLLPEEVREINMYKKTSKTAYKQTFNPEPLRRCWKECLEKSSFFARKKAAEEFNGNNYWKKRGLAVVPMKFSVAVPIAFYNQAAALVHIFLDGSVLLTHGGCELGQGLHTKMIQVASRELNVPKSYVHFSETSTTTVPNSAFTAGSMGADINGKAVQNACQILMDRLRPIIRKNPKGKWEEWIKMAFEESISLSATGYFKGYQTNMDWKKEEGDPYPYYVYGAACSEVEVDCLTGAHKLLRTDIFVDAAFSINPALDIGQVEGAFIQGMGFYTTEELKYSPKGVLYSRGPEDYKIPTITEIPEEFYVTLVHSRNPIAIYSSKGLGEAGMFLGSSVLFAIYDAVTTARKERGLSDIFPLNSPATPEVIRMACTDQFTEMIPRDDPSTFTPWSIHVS

[1] = limit given jointly for mAOX3, mAOX4 and mAOX2

Km (mAOX3; range printed jointly for mAOX3, mAOX4 and mAOX2) | Km (mAOX4) | Km (mAOX3; [1]) | Km (mAOX4; [1]) | SMILES
4.4 to 4.6 mM | 4.4 to 4.6 mM |  |  | CC=O [acetaldehyde]
 |  | < 0.002 mM | < 0.002 mM | O=Cc1ccc(O)cc1 [4-hydroxybenzaldehyde]
